pIC50: −log10 of the molar value.
How the values were obtained:
B-Raf(V599E) kinase = B-Raf(V599E) kinase (Homo sapiens, UniProt P15056, V600E); test: B-Raf(V599E) kinase assay B1 (construct 1, MEK1 substrate, coupled spectrophotometric); assay type: biochemical
Protocol: The test compounds were incubated with the reaction mixtureat 30° C. for 2 h. […] The reaction rate was calculated using the […] time frame. […] IC50 values were calculated from a series of percent inhibition values determined at a range of inhibitor concentrations using software routines as implemented in the GraphPad Prism software package.

Abl kinase = target: T1, Abl kinase (Homo sapiens, UniProt P00519); test: Abl kinase assay A1 (pyruvate kinase/lactate dehydrogenase coupled, spectrophotometric); assay type: biochemical; details: Method A1; for pIC50: read-out: Abl Data (IC50)
T1 sequence (P00519 229-512): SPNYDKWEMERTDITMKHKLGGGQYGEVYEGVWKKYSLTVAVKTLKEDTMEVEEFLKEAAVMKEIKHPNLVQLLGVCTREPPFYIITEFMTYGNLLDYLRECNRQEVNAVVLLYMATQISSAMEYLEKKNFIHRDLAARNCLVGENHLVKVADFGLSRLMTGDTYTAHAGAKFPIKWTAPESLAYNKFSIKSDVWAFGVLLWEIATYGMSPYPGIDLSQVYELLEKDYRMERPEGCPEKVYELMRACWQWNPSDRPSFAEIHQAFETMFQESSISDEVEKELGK
Protocol: IC50 values were calculated from a series of percent inhibition values determined at a range of inhibitor concentrations using software routines as implemented in the GraphPad Prism software package.

Sequence of B-Raf(V599E) kinase (P15056 with tags, fused parts or gaps V600E): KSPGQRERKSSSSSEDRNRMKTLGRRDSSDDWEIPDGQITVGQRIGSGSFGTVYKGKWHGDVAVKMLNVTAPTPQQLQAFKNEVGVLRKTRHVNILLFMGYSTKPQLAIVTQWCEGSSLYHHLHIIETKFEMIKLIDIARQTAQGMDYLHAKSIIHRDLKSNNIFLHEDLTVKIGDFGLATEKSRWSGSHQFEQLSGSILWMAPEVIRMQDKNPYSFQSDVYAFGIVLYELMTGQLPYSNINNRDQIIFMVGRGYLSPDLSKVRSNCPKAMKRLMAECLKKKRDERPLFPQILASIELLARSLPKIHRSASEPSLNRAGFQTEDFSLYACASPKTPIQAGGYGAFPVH

| SMILES | pIC50 (B-Raf(V599E) kinase) | pIC50 (Abl kinase) | inhibition at 10 µM (Abl kinase; @ 10 μM, read-out: Abl Data (percent inhibition)) |
| --- | --- | --- | --- |
| CC(C)(C)c1cc(NC(=O)Nc2ccc3c(c2)OCO3)n(-c2cccc(C#N)c2)n1 [Example 6, 1-(benzo[d][1,3]dioxol-5-yl)-3-(3-t-butyl-1-(3-cyanophenyl)-1H-pyrazol-5-yl)urea] | 6.74 | 5.52 | – |
| COc1cccc(NC(=O)Nc2cc(C(C)(C)C)nn2-c2cccc(C#N)c2)c1 [Example 10] | – | 5.37 | – |
| CC(C)(C)c1cc(NC(=O)Nc2cccc(C(F)(F)F)c2)n(-c2cccc(C#N)c2)n1 [Example 11] | – | 5.29 | – |
| COc1cccc(-n2nc(C(C)(C)C)cc2NC(=O)Nc2cc(Cl)cc(Cl)c2)c1 [Example 14, 1-(3-t-butyl-1-(3-methoxyphenyl)-1H-pyrazol-5-yl)-3-(3,5-dichlorophenyl)urea] | 7.15 | 5.62 | – |
| COc1cccc(-n2nc(C(C)(C)C)cc2NC(=O)Nc2cccc(C#N)c2)c1 [Example 17, 1-(3-t-butyl-1-(3-methoxyphenyl)-1H-pyrazol-5-yl)-3-(3-cyanophenyl)urea] | 7.05 | 6.43 | – |
| CC(C)(C)c1cc(NC(=O)Nc2cccc(Cl)c2Cl)n(-c2cccc(CC(=O)NC[C@H](O)CO)c2)n1 [Example 36, 1-(3-t-butyl-1-(3-(2-((S)-2,3-dihydroxypropylamino)-2-oxoethyl)phenyl)-1H-pyrazol-5-yl)-3-(2,3-dichloro-phenyl)urea] | – | 6.14 | – |
| CC(C)(C)c1cc(NC(=O)Nc2cccc(Cl)c2Cl)n(-c2cccc(CC(=O)NCCO)c2)n1 [Example 37, 1-(3-t-butyl-{1-[3-(2-hydroxyethylamino)-2-oxo-thyl]-phenyl}-1H-pyrazol-5-yl)-3-(2,3-dichlorophenyl)-urea] | 8.24 | 5.85 | – |
| CC(C)(C)c1cc(NC(=O)Nc2cccc(Br)c2)n(-c2cccc(CN)c2)n1 [Example 41, 1-(1-[3-(aminomethyl)phenyl]-3-t-butyl-1H-pyrazol-5-yl)-3-(3-bromophenyl)urea] | 7.05 | 5.43 | – |
| CCOC(=O)c1cc(-n2nc(C(C)(C)C)cc2NC(=O)Nc2cccc(Cl)c2Cl)cc2ccccc12 [Example 58, 3-{3-t-butyl-5-[3-(2,3-dichlorophenyl)ureido]-pyrazol-1-yl}naphthalene-1-carboxylic acid ethyl ester] | – | 5.33 | – |
| CC(C)(C)c1cc(NC(=O)Nc2cc(F)cc(F)c2)n(-c2cc(CO)c3ccccc3c2)n1 [Example 59, 1-(3-t-butyl-1-(4-(hydroxymethyl)naphthalen-2-yl)-1H-pyrazol-5-yl)-3-(3,5-difluorophenyl)urea] | 8.06 | 7.10 | – |
| CC(C)(C)c1cc(NC(=O)Nc2ccc(F)c(F)c2F)n(-c2cc(CO)c3ccccc3c2)n1 [Example 62, 1-(3-t-butyl-1-(4-(hydroxylmethyl)naphthalen-2-yl)-1H-pyrazol-5-yl)-3-(2,3,4-trifluorophenyl)urea] | 8.49 | 6.96 | – |
| CC(C)(C)c1cc(NC(=O)Nc2ccc(F)cc2F)n(-c2cc(CO)c3ccccc3c2)n1 [Example 63, 1-(3-t-butyl-1-(4-(hydroxylmethyl)naphthalen-2-yl)-1H-pyrazol-5-yl)-3-(2,4-difluorophenyl)urea] | 8.40 | 6.52 | – |
| CC(C)(C)c1cc(NC(=O)Nc2cc(F)c(F)cc2F)n(-c2cc(CO)c3ccccc3c2)n1 [Example 64, 1-(3-t-butyl-1-(4-(hydroxymethyl)naphthalen-2-yl)-1H-pyrazol-5-yl)-3-(2,4,5-trifluorophenyl)urea] | 8.48 | 7.20 | – |
| CC(C)(C)c1cc(NC(=O)Nc2cc(F)c(F)c(F)c2)n(-c2cc(CO)c3ccccc3c2)n1 [Example 66, 1-(3-t-butyl-1-(4-(hydroxymethyl)naphthalen-2-yl)-1H-pyrazol-5-yl)-3-(3,4,5-trifluorophenyl)urea] | 8.07 | 7.15 | – |
| CC(C)(C)c1cc(NC(=O)Nc2cc(F)cc(F)c2F)n(-c2cc(CN)c3ccccc3c2)n1 [Example 70, 1-(1-(4-(aminomethyl)naphthalen-2-yl)-3-t-butyl-1H-pyrazol-5-yl)-3-(2,3,5-trifluorophenyl)urea] | 8.30 | 7.30 | – |
| CC(C)(C)c1cc(NC(=O)Nc2cc(F)c(F)cc2F)n(-c2cc(CN)c3ccccc3c2)n1 [Example 71, 1-(1-(4-(aminomethyl)naphthalen-2-yl)-3-t-butyl-1H-pyrazol-5-yl)-3-(2,4,5-trifluorophenyl)urea] | 8.39 | 7.05 | – |
| CCOC(=O)Cc1cc(-n2nc(C(C)(C)C)cc2NC(=O)Nc2cccc(Cl)c2Cl)cc2ccccc12 [Example 76] | 7.96 | – | 31% |

| SMILES | pIC50 (B-Raf(V599E) kinase) | pIC50 (Abl kinase) | inhibition at 10 µM (Abl kinase; @ 10 μM, read-out: Abl Data (percent inhibition)) |
| --- | --- | --- | --- |
| CC(C)(C)c1cc(NC(=O)Nc2cccc(Cl)c2Cl)n(-c2cc(CC(=O)O)c3ccccc3c2)n1 [Example 77, 2-(3-(3-t-butyl-5-(3-(2,3-dichlorophenyl)-ureido)-1H-pyrazol-1-yl)naphthalen-1-yl)acetic acid] | 8.41 | 6.59 | – |
| CC(C)(C)c1cc(NC(=O)Nc2cccc(Cl)c2Cl)n(-c2cc(CC(N)=O)c3ccccc3c2)n1 [Example 78, 2-(3-{3-t-butyl-5-[3-(2,3-dichlorophenyl)ureido]pyrazol-1-yl}naphthalen-1-yl)acetamide] | 8.46 | 7.14 | – |
| CC(C)(C)c1cc(NC(=O)Nc2ccc(C#N)cc2)n(-c2cc(CC(N)=O)c3ccccc3c2)n1 [Example 79, 1-(1-(4-(2-amino-2-oxoethyl)naphthalen-2-yl)-3-t-butyl-1H-pyrazol-5-yl)-3-(4-cyanophenyl)urea] | – | 6.74 | – |
| CC(C)(C)c1cc(NC(=O)Nc2ccc(F)c(F)c2F)n(-c2cc(CC(N)=O)c3ccccc3c2)n1 [Example 80, 1-(1-(4-(2-amino-2-oxoethyl)naphthalen-2-yl)-3-t-butyl-1H-pyrazol-5-yl)-3-(2,3,4-trifluorophenyl)urea] | 8.35 | 7.10 | – |
| CC(C)(C)c1cc(NC(=O)Nc2ccc(F)cc2F)n(-c2cc(CC(N)=O)c3ccccc3c2)n1 [Example 82, 1-(1-(4-(2-amino-2-oxoethyl)naphthalen-2-yl)-3-t-butyl-1H-pyrazol-5-yl)-3-(2,4-difluorophenyl)urea] | 8.23 | 6.44 | – |
| CC(C)(C)c1cc(NC(=O)Nc2cc(F)cc(F)c2)n(-c2cc(CC(N)=O)c3ccccc3c2)n1 [Example 83, 1-(1-(4-(2-amino-2-oxoethyl)naphthalen-2-yl)-3-t-butyl-1H-pyrazol-5-yl)-3-(3,5-difluorophenyl)urea] | 8.07 | 7.06 | – |
| CC(C)(C)c1cc(NC(=O)Nc2ccc(F)cc2)n(-c2cc(CC(N)=O)c3ccccc3c2)n1 [Example 84, 1-(1-(4-(2-amino-2-oxoethyl)naphthalen-2-yl)-3-t-butyl-1H-pyrazol-5-yl)-3-(4-fluorophenyl)urea] | 7.96 | 6.41 | – |
| CC(C)(C)c1cc(NC(=O)Nc2cc(F)ccc2F)n(-c2cc(CC(N)=O)c3ccccc3c2)n1 [Example 87, 1-(1-(4-(2-amino-2-oxoethyl)naphthalen-2-yl)-3-t-butyl-1H-pyrazol-5-yl)-3-(2,5-difluorophenyl)urea] | – | 7.14 | – |
| CC(C)(C)c1cc(NC(=O)Nc2cc(F)c(F)c(F)c2)n(-c2cc(CC(=O)NCC(O)CO)c3ccccc3c2)n1 (centres unmarked) [Example 98] | – | 7.47 | – |
| CC(C)(C)c1cc(NC(=O)Nc2cc(F)ccc2F)n(-c2cc(CC(=O)NC(CO)CO)c3ccccc3c2)n1 [Example 99, 1-(3-t-butyl-1-(4-(2-(1,3-dihydroxypropan-2-ylamino)-2-oxoethyl)naphthalen-2-yl)-1H-pyrazol-5-yl)-3-(2,5-difluorophenyl)urea] | – | 7.42 | – |
| CC(C)(C)c1cc(NC(=O)Nc2cccc(Cl)c2Cl)n(-c2ccc3c(c2)C(=O)CC3)n1 [Example 102, 1-[5-t-butyl-2-(3-oxo-indan-5-yl)-2H-pyrazol-3-yl]-3-(2,3-dichlorophenyl)urea] | 8.60 | 6.96 | – |
| CC(C)(C)c1cc(NC(=O)Nc2cccc(Cl)c2Cl)n(-c2ccc3c(c2)C(O)CC3)n1 (centres unmarked) [Example 103, 1-[5-t-butyl-2-(3-hydroxy-indan-5-yl)-2H-pyrazol-3-yl]-3-(2,3-dichlorophenyl)urea] | 8.35 | 6.62 | – |
| CC(C)(C)c1cc(NC(=O)Nc2cccc(Cl)c2Cl)n(-c2ccc3c(c2)C(N)CC3)n1 (centres unmarked) [Example 105, 1-[2-(3-amino-indan-5-yl)-5-t-butyl-2H-pyrazol-3-yl]-3-(2,3-dichlorophenyl)urea] | 7.92 | 6.62 | – |
| CC(=O)N1CCc2cc(-n3nc(C(C)(C)C)cc3NC(=O)Nc3cccc(Cl)c3Cl)ccc21 [Example 107, 1-(1-(1-acetylindolin-5-yl)-3-t-butyl-1H-pyrazol-5-yl)-3-(2,3-dichlorophenyl)urea] | 8.68 | 6.74 | – |
| CC(C)(C)c1cc(NC(=O)Nc2cccc(C#N)c2)n(-c2ccc3c(c2)CNCC3)n1 [Example 125, 1-(3-t-butyl-1-(1,2,3,4-tetrahydroisoquinolin-7-yl)-1H-pyrazol-5-yl)-3-(3-cyanophenyl)urea] | – | 6.74 | – |
| CC(C)(C)c1cc(NC(=O)Nc2cccc(C#N)c2)n(-c2ccc3c(c2)CCNCC3)n1 [Example 167, 1-(3-t-butyl-1-(2,3,4,5-tetrahydro-1H-benzo[d]azepin-7-yl)-1H-pyrazol-5-yl)-3-(3-cyanophenyl)urea] | – | 6.51 | – |
